Patent publication US20210052701A1, “Methods of Treating Vascular Leakage Using CXCL12 Peptides” (The Medical College of Wisconsin, Inc., priority 2018, published 2021)
“Also recorded” adds a separate entry of the source.

Key:
[1] = tested on: animal model of acute respiratory distress syndrome (ARDS); assay: Animal model of ARDS: lung ischemia reperfusion injury plus hemorrhage (P:F ratio, lung injury score); type: in vivo, Sprague-Dawley rats
Description: Animals underwent 70 min of […] lung ischemia for 70 min plus hemorrhage to a MAP of 40 mmHg for the last 30 min of ischemia, followed by fluid resuscitation to a MAP of 60 mmHg until t=300 min. Arrow: drug injection. Dashed lines indicate the P:F ratio (mmHg) threshold values for the diagnosis of mild, moderate and severe ARDS. Vehicle: n=5. CXCL12: n=3. CXCL12: n=4. CXCL12-LM: n=3, CXCL12-LD: n=4. CXCL12 K27A/R41A/R47A: n=3. LI+HEM: lung ischemia reperfusion injury plus hemorrhage. Data are mean±SEM. *: p<0.05 vs. vehicle (2-way ANOVA/Dunnett's multiple comparisons test).
FIGS. 12A-12C show lung histology after treatment with CXCL12 and engineered CXCR4 agonists A. Lung specimens were placed in formalin fixative solution and were then embedded in paraffin wax, sliced into 5 μm sections and stained with H&E. Representative images from H&E stained lung sections from animals after vehicle (left) and CXCL12 ([…], right treatment. B/C. Lung injury scores (B. uninjured (left) lung; C. injured (right) lung). Data are median±interquartile ranges. Data were analyzed with the Kruskal Wallis test with Dunn's multiple comparisons test. The level of statistical significance (p) vs. ctrl. (vehicle treatment) indicated.
We tested therapeutic efficacy of wild-type CXCL12, CXXL12-locked dimer (LD), CXCL12-locked monomer (LM) and the triple mutant CXCL12 K27A/R41A/R47A in an animal model of acute respiratory distress syndrome (ARDS) (FIG. 11). All drugs were injected in a dose of 0.14 μmol/kg. Male Sprague-Dawley rats were anesthetized, orotracheally intubated, instrumented with arterial/venous catheters, and mechanically ventilated (PEEP 2 mmHg, FiO2 1.0). After a right lateral thoracotomy, a suture was tied around the hilum of the right lung. Animals underwent 70 min of right lung ischemia plus hemorrhage to a mean arterial blood pressure (MAP) of 40 mmHg for the last 30 min of lung ischemia. At t=70 min, the suture was removed, animals were ventilated with FiO2 1.0, PEEP 5 mmHg and resuscitated with crystalloids to a MAP of 60 mmHg until t=300 min. Vehicle and drugs were injected i.v. within 10 min after reperfusion.
We further evaluated histomorphology of the lungs from animals treated with vehicle, wild-type CXCL12, CXCL12-LD and CXCXL12-LM utilizing a standardized lung injury score. Lung slides stained with hematoxylin and eosin were examined under a light microscope by 4 investigators blinded to the identity of the specimens. The lung injury score was assessed as previously described/. In brief each investigator rendered a score of 0 (no damage) to 4+(maximal damage) based on an injury grading scale composed of six criteria. The slides were assessed for the extent of alveolar congestion, hemorrhage and edema, as well as alveolar and vessel wall PMN infiltration and alveolar wall thickness. […] Lung injury scores of the uninjured and injured lungs from animals treated with vehicle, wild-type CXCL12, CXCL12-LD and CXCXL12-LM are shown in FIGS. […], respectively.

hPPAEC = assay: Effects of CXCR4 agonists / CXCL12 variants on thrombin-induced impairment of hPPAEC monolayer permeability; type: cell-based, human
How it was run: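 Confluent hPPAEC monolayers on collagen-coated permeable membranes were exposed to 35 nM thrombin; 10 min later, agonists or CXCL12 variants (0.05–50 nM) were added, ± AMD3100 10 μM. FITC-dextran (20 μg/mL) crossing the monolayer was read by fluorescence over 255 min. % inhibition of hyperpermeability was taken at 255 min; N=3 in quadruplicate.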

CXCL12 = CXCL12 (Homo sapiens, UniProt P48061); conditions: read-out: dimerization Kd; cited from earlier work
Chain of CXCL12 (P48061 22-89 limits assumed): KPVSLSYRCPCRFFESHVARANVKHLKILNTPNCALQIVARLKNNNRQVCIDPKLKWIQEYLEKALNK

CXCL12: Wild-type CXCL12 (SEQ ID NO:1), cognate agonist of CXCR4 and ACKR3
development of ARDS (P:F ratio) ([1]; 0.14 μmol/kg i.v. within 10 min after reperfusion, until t=300 min): development of ARDS was delayed and attenuated
time at which criteria for mild ARDS were fulfilled ([1]; 0.14 μmol/kg i.v., P:F ratio<300 mmHg): 300 min
P:F ratios compared with vehicle treated animals ([1]; 0.14 μmol/kg i.v., t=90-240 min): significantly higher
histological signs of lung injury, injured lung (lung injury score) ([1]; H&E sections, vs. vehicle): significantly reduced
effect of pre-treatment on thrombin-induced hyper-permeability of hPPAEC (hPPAEC; 100 nM for 10 min, then thrombin (50 nM)): significantly attenuated thrombin-induced hyper-permeability of hPPAEC; also recorded: more efficacious than ubiquitin
effect on thrombin-induced permeability of hPPAEC when added after thrombin (hPPAEC; thrombin 35 nM, after 10 min CXCL12 or ubiquitin 50 nM, AMD3100 10 μM): significantly attenuated thrombin-induced permeability of hPPAEC
Kd (CXCL12): 140 µM
